The results in this text go back to patent publication US10015966B2, “Fungicidal pyrazole mixtures” (E I DU PONT DE NEMOURS AND COMPANY, priority 2012, dated 2018).

Each structure is given as a SMILES string. Marks after values point to notes of the source that are not given here.

The test system of series [1] is Blumeria graminis f. sp. tritici. In words: Test I: preventive spray on wheat seedlings, wheat powdery mildew, visual disease rating. It counts as in vivo. As to conditions: 192 h, 200 ppm test suspension. On the procedure: General protocol for preparing test suspensions for Tests A-I: the test compounds were first dissolved in acetone in an amount equal to 3% of the final volume and then suspended at the desired concentration (in ppm) in acetone and purified water (50/50 mix by volume) containing 250 ppm of the surfactant Trem® 014 (polyhydric alcohol esters). The resulting test suspensions were then used in Tests A-I. Each test was conducted in triplicate, and the results were averaged. Spraying a 200 ppm test suspension to the point of run-off on the test plants was the equivalent of a rate of about 800 g/ha. Unless otherwise indicated, the rating values indicate a 200 ppm test suspension was used. (An asterisk “*” next to the rating value indicates a 40 ppm test suspension was used.) The test suspension was sprayed to the point of run-off on wheat seedlings. The following day the seedlings were inoculated with a spore dust of Blumeria graminis f. sp. tritici (also known as Erysiphe graminis f. sp. tritici, the causal agent of wheat powdery mildew) and incubated in a growth chamber at 20° C. for 8 days, after which time visual disease ratings were made. Results for Tests A-I are given in Table A. In the Table, a rating of 100 indicates 100% disease control and a rating of 0 indicates no disease control (relative to the controls). A hyphen (-) indicates no test results.

A short description of series [2]: Single oral dose pharmacokinetics in rats, plasma and fat analysed by LC/MS (fat:plasma ratio). As to conditions: single dose via oral gavage, compared to corresponding compounds with a nonhydrogen substituent at the para position of the phenyl ring connected to R^1 and R^2. The format is in vivo. On the procedure:
The pharmacokinetic properties of compounds of Formula 1 can be measured using a wide variety of assay protocols known in the science of pharmacology. In one illustrative method involving a single oral dose, three male and three female rats receive a single dose of a test substance via oral gavage. Approximately 0.25 mL of blood is collected via tail vein immediately prior to dosing, and then at 0.25, 0.5, 1, 2, 4, 8, 12, 24 h and every 24 h thereafter until sacrifice. At sacrifice, fat is also collected to determine the fat:plasma ratio at sacrifice. Blood is collected into tubes that contain ethylenediaminetetracetic acid (EDTA) and centrifuged at 2500×g in order to separate plasma from blood cells. The plasma is then extracted by protein precipitation using, for example, acetonitrile and a protein precipitation plate (e.g., Strata Impact Protein Precipitation Plate, part number CEO-7565 of Phenomenex, Torrance, Calif., U.S.A.) following directions provided for the plate. Alternatively, the plasma is extracted just with acetonitrile, vortexed (i.e. mixed using a vortex mixer), and centrifuged to pellet the proteins. After removal of the proteins, the plasma is analyzed for parent compound and/or metabolites by liquid chromatography-mass spectrometry (LC/MS). The fat is homogenized and extracted by an organic solvent such as acetonitrile. The extract is then analyzed for parent compound and/or metabolites by LC/MS. The plasma pharmacokinetic data is then analyzed using nonlinear modeling software (e.g., WinNonlin™ from Pharsight, Cary, N.C., U.S.A.) to determine half-life of the administered compound in plasma, the time after administration when the maximum plasma concentration is reached (Tmax), the maximum plasma concentration (Cmax) and the area under the plasma concentration curve (AUC). As analysis of fat requires rat sacrifice, fat data is obtained at single time points (i.e. the time of rat sacrifice). However, by using multiple rats sacrificed after different intervals from time of dosing, such parameters as Cmax for fat are determined.

For series [3], the system named is Puccinia recondita f. sp. tritici. In words: Test H: preventive spray on wheat seedlings, wheat leaf rust, visual disease rating. As to conditions: 200 ppm test suspension. It counts as in vivo. On the procedure:
General protocol for preparing test suspensions for Tests A-I: the test compounds were first dissolved in acetone in an amount equal to 3% of the final volume and then suspended at the desired concentration (in ppm) in acetone and purified water (50/50 mix by volume) containing 250 ppm of the surfactant Trem® 014 (polyhydric alcohol esters). The resulting test suspensions were then used in Tests A-I. Each test was conducted in triplicate, and the results were averaged. Spraying a 200 ppm test suspension to the point of run-off on the test plants was the equivalent of a rate of about 800 g/ha. Unless otherwise indicated, the rating values indicate a 200 ppm test suspension was used. (An asterisk “*” next to the rating value indicates a 40 ppm test suspension was used.) The test suspension was sprayed to the point of run-off on wheat seedlings. The following day the seedlings were inoculated with a spore suspension of Puccinia recondita f. sp. tritici (the causal agent of wheat leaf rust) and incubated in a saturated atmosphere at 20° C. for 24 h, and then moved to a growth chamber at 20° C. for 6 days, after which time visual disease ratings were made. Results for Tests A-I are given in Table A. In the Table, a rating of 100 indicates 100% disease control and a rating of 0 indicates no disease control (relative to the controls). A hyphen (-) indicates no test results.

Series [4] concerns Septoria tritici. Briefly: Test F: preventive spray on wheat seedlings, wheat leaf blotch, visual disease rating. The note with it: Zymoseptoria tritici, 200 ppm test suspension. It counts as in vivo. On the procedure:
General protocol for preparing test suspensions for Tests A-I: the test compounds were first dissolved in acetone in an amount equal to 3% of the final volume and then suspended at the desired concentration (in ppm) in acetone and purified water (50/50 mix by volume) containing 250 ppm of the surfactant Trem® 014 (polyhydric alcohol esters). The resulting test suspensions were then used in Tests A-I. Each test was conducted in triplicate, and the results were averaged. Spraying a 200 ppm test suspension to the point of run-off on the test plants was the equivalent of a rate of about 800 g/ha. Unless otherwise indicated, the rating values indicate a 200 ppm test suspension was used. (An asterisk “*” next to the rating value indicates a 40 ppm test suspension was used.) The test suspension was sprayed to the point of run-off on wheat seedlings. The following day the seedlings were inoculated with a spore suspension of Septoria tritici (the causal agent of wheat leaf blotch) and incubated in saturated atmosphere at 24° C. for 48 h. and then the seedlings were moved to a growth chamber at 20° C. for 19 additional days, after which time visual disease ratings were made. Results for Tests A-I are given in Table A. In the Table, a rating of 100 indicates 100% disease control and a rating of 0 indicates no disease control (relative to the controls). A hyphen (-) indicates no test results.

Series [5] concerns Botrytis cinerea. Briefly: Test A: preventive spray on tomato seedlings, tomato Botrytis, visual disease rating. It counts as in vivo. The note with it: 200 ppm test suspension. On the procedure: General protocol for preparing test suspensions for Tests A-I: the test compounds were first dissolved in acetone in an amount equal to 3% of the final volume and then suspended at the desired concentration (in ppm) in acetone and purified water (50/50 mix by volume) containing 250 ppm of the surfactant Trem® 014 (polyhydric alcohol esters). The resulting test suspensions were then used in Tests A-I. Each test was conducted in triplicate, and the results were averaged. Spraying a 200 ppm test suspension to the point of run-off on the test plants was the equivalent of a rate of about 800 g/ha. Unless otherwise indicated, the rating values indicate a 200 ppm test suspension was used. (An asterisk “*” next to the rating value indicates a 40 ppm test suspension was used.) The test suspension was sprayed to the point of run-off on tomato seedlings. The following day the seedlings were inoculated with a spore suspension of Botrytis cinerea (the causal agent of tomato Botrytis) and incubated in saturated atmosphere at 20° C. for 48 h, and then moved to a growth chamber at 24° C. for 3 additional days, after which time visual disease ratings were made. Results for Tests A-I are given in Table A. In the Table, a rating of 100 indicates 100% disease control and a rating of 0 indicates no disease control (relative to the controls). A hyphen (-) indicates no test results.

Series [6] concerns Septoria nodorum. In words: Test E: preventive spray on wheat seedlings, Septoria glume blotch, visual disease rating. It counts as in vivo. As to conditions: asterisked rating: test suspension other than 200 ppm. On the procedure: General protocol for preparing test suspensions for Tests A-I: the test compounds were first dissolved in acetone in an amount equal to 3% of the final volume and then suspended at the desired concentration (in ppm) in acetone and purified water (50/50 mix by volume) containing 250 ppm of the surfactant Trem® 014 (polyhydric alcohol esters). The resulting test suspensions were then used in Tests A-I. Each test was conducted in triplicate, and the results were averaged. Spraying a 200 ppm test suspension to the point of run-off on the test plants was the equivalent of a rate of about 800 g/ha. Unless otherwise indicated, the rating values indicate a 200 ppm test suspension was used. (An asterisk “*” next to the rating value indicates a 40 ppm test suspension was used.) The test suspension was sprayed to the point of run-off on wheat seedlings. The following day the seedlings were inoculated with a spore suspension of Septoria nodorum (the causal agent of Septoria glume blotch) and incubated in a saturated atmosphere at 24° C. for 48 h, and then moved to a growth chamber at 20° C. for 9 days, after which time visual disease ratings were made. Results for Tests A-I are given in Table A. In the Table, a rating of 100 indicates 100% disease control and a rating of 0 indicates no disease control (relative to the controls). A hyphen (-) indicates no test results.

As for `Cc1nn(C)c(Nc2c(F)cccc2Cl)c1-c1ccc(F)cc1Br` [Compound 4, 4-(2-bromo-4-fluorophenyl)-N-(2-chloro-6-fluorophenyl)-1,3-dimethyl-1H-pyrazol-5-amine], the pest or weed control at 200 ppm in series [1], in series [3], in series [4] and in series [5] was 100% each time. For the same molecule, the distribution into fat entry in series [2] is “significantly diminished distribution into fat”.

As to `Cc1nn(C)c(Nc2c(F)cccc2Br)c1-c1ccc(F)cc1Cl` [Compound 5, N-(2-bromo-6-fluorophenyl)-4-(2-chloro-4-fluorophenyl)-1,3-dimethyl-1H-pyrazol-5-amine], the pest or weed control at 200 ppm in series [1], in series [3], in series [4] and in series [5] was 100% each time. The distribution into fat entry in series [2] is “significantly diminished distribution into fat”.

As for `Cc1nn(C)c(Nc2c(F)cccc2Br)c1-c1ccc(F)cc1Br` [Compound 7, 4-(2-bromo-4-fluorophenyl)-N-(2-bromo-6-fluorophenyl)-1,3-dimethyl-1H-pyrazol-5-amine], the melting point (commonly the temperature, or range, at which the solid turns liquid) lay within 154 to 156 °C. Also, the pest or weed control – broadly, how far the test organism was held down – at 200 ppm in series [1] is 100%. In series [3], this molecule yielded a pest or weed control at 200 ppm of 100%. Also, the pest or weed control at 200 ppm in series [4] worked out at 100%. In series [5], the pest or weed control at 200 ppm stood at 100%.

`Cc1nn(C)c(Nc2ccccc2Cl)c1-c1ccc(F)cc1Br` [Compound 8, 4-(2-bromo-4-fluorophenyl)-N-(2-chlorophenyl)-1,3-dimethyl-1H-pyrazol-5-amine]: the pest or weed control at 200 ppm in series [1] is 100%; in series [3], 99%; in series [4] it was 100%; in series [5] it was 100%.

Turning to `Cc1nn(C)c(Nc2ccccc2Br)c1-c1ccc(F)cc1Cl` [Compound 9, N-(2-bromophenyl)-4-(2-chloro-4-fluorophenyl)-1,3-dimethyl-1H-pyrazol-5-amine], the “Test E rating (% disease control)” value in series [6] was 0* %.

As to `Cc1nn(C)c(Nc2ccccc2Cl)c1-c1ccc(F)cc1Cl` [Compound 10, 4-(2-chloro-4-fluorophenyl)-N-(2-chlorophenyl)-1,3-dimethyl-1H-pyrazol-5-amine], the “Test E rating (% disease control)” value in series [6] is reported as 0* %.

Consider `Cc1nn(C)c(Nc2c(F)cccc2F)c1-c1ccc(F)cc1Br` [Compound 11, 4-(2-bromo-4-fluorophenyl)-N-(2,6-difluorophenyl)-1,3-dimethyl-1H-pyrazol-5-amine], for which the “Test E rating (% disease control)” value in series [6] is 60* %.
